According to US20220213144A1, “HALOGENATED ANTIMICROBIAL PEPTOIDS” (priority 2019, published 2022):
Converted amounts (≈) assume the structure as drawn. Where two headings read alike, the source gives them in different places. Square brackets hold non-standard residues; d marks the D form. Peptide text beside a SMILES is read from it. Gly(Nα-4-Cl-benzyl) = O=C(O)CNCc1ccc(Cl)cc1; N(4-Br-benzyl)Gly = O=C(O)CNCc1ccc(Br)cc1; N(4-F-Bzl)Gly = O=C(O)CNCc1ccc(F)cc1; NBzl(4-I)Gly = O=C(O)CNCc1ccc(I)cc1; Nphe = O=C(O)CNCc1ccccc1; Nlys = NCCCCNCC(=O)O

How the values were obtained:
seven bacterial strains = assay: MIC by broth microdilution, whole panel of bacterial strains; assay type: cell-based; conditions: in words
Experimental: All 36 peptoids were tested against seven bacterial strains. These included five Gram-positive strains (Staphylococcus aureus ATCC 25923 and ATCC 29213, methicillin-resistant Staphylococcus aureus USA 300, methicillin-restant Staphylococcus epidermidis ET-024 and ATCC 51625) and two Gram-negative strains (Escherichia coli ATCC 25922 and Pseudomonas aeruginosa PA01) (see TABLE 1).
(§1) Bacterial growth inhibition was determined by using broth microdilution according to the Clinical Laboratory Standards Institute. The antibacterial activity of peptoids was tested against S. aureus ATCC 25923, ATCC29213, and methicillin resistant S. aureus USA 300, methicillin resistant S. epidermidis ATCC 51625, a biofilm producing methicillin resistant S. epidermidis […], P. aeruginosa Pa01 (H103), and E. coli ATCC 25922. Bacteria, grown on agar plates for 18 hours at 37° C., were diluted to ˜1×10^8 CFU/mL in Mueller-Hinton Broth II (MHB II). Twofold serial dilutions of peptoids in MHB II were inoculated with the bacteria to achieve a final concentration of 5×10^5 CFU/mL in polypropylene 96 U-well microtiter plates (Corning™ 3897; ThermoFisher Scientific, Roskilde), followed by incubation at 37° C. in ambient air for 18 hours. The MIC values were determined as the lowest concentration showing no visible bacterial growth. Experiments were performed twice (in technical triplicates) on different days.

[1] = test system: methicillin-restant S. epidermidis ATCC 51625; assay type: cell-based, Staphylococcus epidermidis; conditions: for MIC against MRSE: text b77, 6-mers, strain not named, values fit ATCC 51625
Experimental: as §1

[2] = Small angle X-ray scattering, critical aggregation concentration from fit; assay type: physicochemical; conditions: for critical aggregation concentration (CAC): SAXS fit analysis, bundle model
Experimental: SAXS experiments of the 10-mer peptoids were performed on the automated BM29 bioSAXS beamline at the European Synchrotron Radiation Facility (ESRF) in Grenoble, France. The data was obtained using an energy of 12.5 keV and a detector distance of 2.87 m, covering a q range (q=4π sin(θ/2)/λ), where θ is the scattering angle and λ is the X-ray wavelength) of about 0.0047 Å-1 to 0.5 Å-1. The data set was calibrated to an absolute intensity scale using water as a primary standard. Samples (40 μL) were run through a capillary using the flow mode of the automated sample changer. SAXS data was collected in ten successive frames of 0.5 s each to monitor radiation damage, and the data reduction was done using the standard tool at BM29.
The SAXS experiments on the fully iodinated 6-, 8-, and 12-mers to determine the CAC of the compounds were performed using a Bruker NANOSTAR equipped with a microfocus X-ray source (IμS Cu, Incoatec, Germany) and a VANTEC-2000 detector. Raw scattering data was calibrated to absolute intensity scale using water as a primary standard and radially averaged in order to obtain the 1D scattered intensity profile as a function of the scattering vector, with a wavelength of 1.54 Å.
where fagg is the fraction of peptoid chains aggregated in bundles, allowing for calculation of a CAC from ϕCAC=ϕ−(fagg*ϕ).

S. aureus ATCC 25923 = assay type: cell-based, Staphylococcus aureus; conditions: for increase in activity against S. aureus: compared to the unsubstituted control peptoid of same length; for MIC against S. aureus: strain not named
Experimental: as §1

[3] = test system: methicillin-restant S. epidermidis ET-024; assay type: cell-based, Staphylococcus epidermidis; conditions: for MIC against MRSE: strain not named; for increase in activity against MRSE: 8-mer and 10-mer, compared to unsubstituted controls 10 and 19
Experimental: as §1

[4] = Table 3, fully iodinated peptoids, bundle model fit
[5] = 8-mers and 10-mers, values fit ET-024
[6] = Table 2, 10-mers, SAXS at ESRF, model fit

## NCCCCNCC(=O)N(CC(=O)N(CCCCN)CC(=O)N(CC(=O)N(CCCCN)CC(=O)N(CC(N)=O)Cc1ccccc1)Cc1ccccc1)Cc1ccccc1 [Compound 1] (H-[Nlys][Nphe][Nlys][Nphe][Nlys][Nphe]-NH2; N-terminus assumed)
Seven bacterial strains
  potency against the selected bacterial strains: inactive
[1]
  MIC against MRSE: 512 µg/mL (≈ 607 µM)

## NCCCCNCC(=O)N(CC(=O)N(CCCCN)CC(=O)N(CC(=O)N(CCCCN)CC(=O)N(CC(N)=O)Cc1ccc(I)cc1)Cc1ccc(I)cc1)Cc1ccc(I)cc1 [Compound 5] (H-[Nlys][NBzl(4-I)Gly][Nlys][NBzl(4-I)Gly][Nlys][NBzl(4-I)Gly]-NH2; N-terminus assumed)
[2]
  critical aggregation concentration (CAC): 2.8 mg/mL
[2]; [4]
  CAC: 2.8 mg/mL
[1]; 6-mer, compared to unsubstituted control 1
  increase in activity against MRSE: 256 fold
[1]
  MIC against MRSE: 2 µg/mL (≈ 1.64 µM)
S. aureus ATCC 25923
  increase in activity against S. aureus: more than 64 fold
  MIC against S. aureus: 8 µg/mL (≈ 6.55 µM)

## NCCCCNCC(=O)N(CC(=O)N(CCCCN)CC(=O)N(CC(=O)N(CCCCN)CC(=O)N(CC(=O)N(CCCCN)CC(=O)N(CC(N)=O)Cc1ccccc1)Cc1ccccc1)Cc1ccccc1)Cc1ccccc1 [Compound 10] (H-[Nlys][Nphe][Nlys][Nphe][Nlys][Nphe][Nlys][Nphe]-NH2; N-terminus assumed)
Seven bacterial strains
  potency against the selected bacterial strains: inactive
[3]; [5]
  MIC against MRSE: 256 µg/mL (≈ 229 µM)

## NCCCCNCC(=O)N(CC(=O)N(CCCCN)CC(=O)N(CC(=O)N(CCCCN)CC(=O)N(CC(=O)N(CCCCN)CC(=O)N(CC(N)=O)Cc1ccc(I)cc1)Cc1ccc(I)cc1)Cc1ccc(I)cc1)Cc1ccc(I)cc1 [Compound 14] (H-[Nlys][NBzl(4-I)Gly][Nlys][NBzl(4-I)Gly][Nlys][NBzl(4-I)Gly][Nlys][NBzl(4-I)Gly]-NH2; N-terminus assumed)
[2]
  critical aggregation concentration (CAC): 1.4 mg/mL
[2]; [4]
  CAC: 1.4 mg/mL
[3]
  increase in activity against MRSE: 128 fold
  MIC against MRSE: 2 µg/mL (≈ 1.23 µM)

## NCCCCNCC(=O)N(CC(=O)N(CCCCN)CC(=O)N(CC(=O)N(CCCCN)CC(=O)N(CC(=O)N(CCCCN)CC(=O)N(CC(=O)N(CCCCN)CC(=O)N(CC(N)=O)Cc1ccccc1)Cc1ccccc1)Cc1ccccc1)Cc1ccccc1)Cc1ccccc1 [Compound 19] (H-[Nlys][Nphe][Nlys][Nphe][Nlys][Nphe][Nlys][Nphe][Nlys][Nphe]-NH2; N-terminus assumed)
Seven bacterial strains
  potency against the selected bacterial strains: inactive
[2]; [6]
  CAC: >5 mg/mL
[3]; [5]
  MIC against MRSE: 128 µg/mL (≈ 91.8 µM)

## NCCCCNCC(=O)N(CC(=O)N(CCCCN)CC(=O)N(CC(=O)N(CCCCN)CC(=O)N(CC(=O)N(CCCCN)CC(=O)N(CC(=O)N(CCCCN)CC(=O)N(CC(N)=O)Cc1ccc(F)cc1)Cc1ccc(F)cc1)Cc1ccc(F)cc1)Cc1ccc(F)cc1)Cc1ccc(F)cc1 [Compound 20] (H-[Nlys][N(4-F-Bzl)Gly][Nlys][N(4-F-Bzl)Gly][Nlys][N(4-F-Bzl)Gly][Nlys][N(4-F-Bzl)Gly][Nlys][N(4-F-Bzl)Gly]-NH2; N-terminus assumed)
[2]; [6]
  CAC: >5 mg/mL

## NCCCCNCC(=O)N(CC(=O)N(CCCCN)CC(=O)N(CC(=O)N(CCCCN)CC(=O)N(CC(=O)N(CCCCN)CC(=O)N(CC(=O)N(CCCCN)CC(=O)N(CC(N)=O)Cc1ccc(Cl)cc1)Cc1ccc(Cl)cc1)Cc1ccc(Cl)cc1)Cc1ccc(Cl)cc1)Cc1ccc(Cl)cc1 [Compound 21] (H-[Nlys][Gly(Nα-4-Cl-benzyl)][Nlys][Gly(Nα-4-Cl-benzyl)][Nlys][Gly(Nα-4-Cl-benzyl)][Nlys][Gly(Nα-4-Cl-benzyl)][Nlys][Gly(Nα-4-Cl-benzyl)]-NH2; N-terminus assumed)
[2]; [6]
  CAC: >5 mg/mL

## NCCCCNCC(=O)N(CC(=O)N(CCCCN)CC(=O)N(CC(=O)N(CCCCN)CC(=O)N(CC(=O)N(CCCCN)CC(=O)N(CC(=O)N(CCCCN)CC(=O)N(CC(N)=O)Cc1ccc(Br)cc1)Cc1ccc(Br)cc1)Cc1ccc(Br)cc1)Cc1ccc(Br)cc1)Cc1ccc(Br)cc1 [Compound 22] (H-[Nlys][N(4-Br-benzyl)Gly][Nlys][N(4-Br-benzyl)Gly][Nlys][N(4-Br-benzyl)Gly][Nlys][N(4-Br-benzyl)Gly][Nlys][N(4-Br-benzyl)Gly]-NH2; N-terminus assumed)
[2]
  critical aggregation concentration (CAC): 2.3 mg/mL
[2]; [6]
  CAC: 2.3 mg/mL
[3]
  increase in activity against MRSE: 128 fold
[3]; [5]
  MIC against MRSE: 1 µg/mL (≈ 0.559 µM)
S. aureus ATCC 25923
  increase in activity against S. aureus: > 256 fold
  MIC against S. aureus: 2 µg/mL (≈ 1.12 µM)

## NCCCCNCC(=O)N(CC(=O)N(CCCCN)CC(=O)N(CC(=O)N(CCCCN)CC(=O)N(CC(=O)N(CCCCN)CC(=O)N(CC(=O)N(CCCCN)CC(=O)N(CC(N)=O)Cc1ccc(I)cc1)Cc1ccc(I)cc1)Cc1ccc(I)cc1)Cc1ccc(I)cc1)Cc1ccc(I)cc1 [Compound 23] (H-[Nlys][NBzl(4-I)Gly][Nlys][NBzl(4-I)Gly][Nlys][NBzl(4-I)Gly][Nlys][NBzl(4-I)Gly][Nlys][NBzl(4-I)Gly]-NH2; N-terminus assumed)
[2]
  critical aggregation concentration (CAC): 0.5 mg/mL
[2]; [6]
  CAC: 0.4 mg/mL
[2]; [4]
  CAC: 0.5 mg/mL

## NCCCCNCC(=O)N(CC(=O)N(CCCCN)CC(=O)N(CC(=O)N(CCCCN)CC(=O)N(CC(=O)N(CCCCN)CC(=O)N(CC(=O)N(CCCCN)CC(=O)N(CC(N)=O)Cc1ccc(F)cc1)Cc1ccccc1)Cc1ccc(F)cc1)Cc1ccccc1)Cc1ccc(F)cc1 [Compound 24] (H-[Nlys][N(4-F-Bzl)Gly][Nlys][Nphe][Nlys][N(4-F-Bzl)Gly][Nlys][Nphe][Nlys][N(4-F-Bzl)Gly]-NH2)
[2]; [6]
  CAC: >5 mg/mL

## NCCCCNCC(=O)N(CC(=O)N(CCCCN)CC(=O)N(CC(=O)N(CCCCN)CC(=O)N(CC(=O)N(CCCCN)CC(=O)N(CC(=O)N(CCCCN)CC(=O)N(CC(N)=O)Cc1ccc(Cl)cc1)Cc1ccccc1)Cc1ccc(Cl)cc1)Cc1ccccc1)Cc1ccc(Cl)cc1 [Compound 25] (H-[Nlys][Gly(Nα-4-Cl-benzyl)][Nlys][Nphe][Nlys][Gly(Nα-4-Cl-benzyl)][Nlys][Nphe][Nlys][Gly(Nα-4-Cl-benzyl)]-NH2)
[2]; [6]
  CAC: >5 mg/mL

## NCCCCNCC(=O)N(CC(=O)N(CCCCN)CC(=O)N(CC(=O)N(CCCCN)CC(=O)N(CC(=O)N(CCCCN)CC(=O)N(CC(=O)N(CCCCN)CC(=O)N(CC(N)=O)Cc1ccc(I)cc1)Cc1ccccc1)Cc1ccc(I)cc1)Cc1ccccc1)Cc1ccc(I)cc1 [Compound 27] (H-[Nlys][NBzl(4-I)Gly][Nlys][Nphe][Nlys][NBzl(4-I)Gly][Nlys][Nphe][Nlys][NBzl(4-I)Gly]-NH2)
[2]; [6]
  CAC: >5 mg/mL

## NCCCCNCC(=O)N(CC(=O)N(CCCCN)CC(=O)N(CC(=O)N(CCCCN)CC(=O)N(CC(=O)N(CCCCN)CC(=O)N(CC(=O)N(CCCCN)CC(=O)N(CC(=O)N(CCCCN)CC(=O)N(CC(N)=O)Cc1ccccc1)Cc1ccccc1)Cc1ccccc1)Cc1ccccc1)Cc1ccccc1)Cc1ccccc1 [Compound 28] (H-[Nlys][Nphe][Nlys][Nphe][Nlys][Nphe][Nlys][Nphe][Nlys][Nphe][Nlys][Nphe]-NH2; N-terminus assumed)
Seven bacterial strains
  potency against the selected bacterial strains: inactive

## NCCCCNCC(=O)N(CC(=O)N(CCCCN)CC(=O)N(CC(=O)N(CCCCN)CC(=O)N(CC(=O)N(CCCCN)CC(=O)N(CC(=O)N(CCCCN)CC(=O)N(CC(=O)N(CCCCN)CC(=O)N(CC(N)=O)Cc1ccc(I)cc1)Cc1ccc(I)cc1)Cc1ccc(I)cc1)Cc1ccc(I)cc1)Cc1ccc(I)cc1)Cc1ccc(I)cc1 [Compound 32] (H-[Nlys][NBzl(4-I)Gly][Nlys][NBzl(4-I)Gly][Nlys][NBzl(4-I)Gly][Nlys][NBzl(4-I)Gly][Nlys][NBzl(4-I)Gly][Nlys][NBzl(4-I)Gly]-NH2; N-terminus assumed)
[2]
  critical aggregation concentration (CAC): 0.4 mg/mL
[2]; [4]
  CAC: 0.4 mg/mL
